Common to all, as to type: in vivo, human
Data set [1] deals with patient suffering from rheumatoid arthritis. As to the kind of experiment: Case reports: patients suffering from rheumatoid arthritis. The following applies: Example 17; before Topamax. On the procedure:
A patient suffering from rheumatoid arthritis was administered 25 mg per day of topiramate with an increase every 10 days by 25 mg until 25 mg, 3 times per day, was achieved. The patient previously took 3 or 4 tablets per day of lortab, seven 2.5 mg tablets of methotrexate once a week, 200 mg per day of minocycline and 10 mg per day of prednisone.
An adolescent patient suffering from rheumatoid arthritis began taking 15 mg per day of topiramate for one week, which was then increased by 15 mg weekly until 45 mg per day, in three divided dosages of 15 mg each, was reached. The patient previously took 3 to 5 mg of prednisone daily.
A patient suffering from rheumatoid arthritis with a positive rheumatic factor about 3 decades earlier, at which time they also experienced polyarthritis and Renaud's phenomena, was treated with prednisone 40 mg per day for six months and was then weaned off the prednisone after one year. In the ensuing years, psoriasis developed on both elbows which was worse in the winter. They were an avid golfer and experienced painful swelling and stiffness of both wrists and hands, especially the left, and back pain and stiffness. […] They were begun on Topamax 15 mg a day which was increased weekly by 15 mg until 45 mg per day was taken in divided doses.

The test system of data set [2] is patient suffering from multiple sclerosis. Briefly: Case reports: patients suffering from multiple sclerosis treated with topiramate. Particulars: Example 18; patient's own attempt. On the procedure: A patient suffering from multiple sclerosis was administered 15 mg per day of topiramate. The dosage was increased after 15 days to 30 mg per day. At 15 mg, the patient's involuntary stretch rigid response stopped and the patient was able to get out of bed without falling backward when their feet touched the floor for the first time in nine years.
The patient previously took trazadone 100 mg at bedtime, clonazepan 1 mg three times a day, citalapram 40 mg each morning, gabapentrin 600 mg four times a day, and synthroid 25 mcg per day for two years. They had refused steroids and interferon because of side effects.
The Topamax was increased to 15 mg at bedtime and they reported “no bad bladder accidents” and that their leg and foot cramps had disappeared. […] They were discharged on Topamax 15 mg at bedtime along with previous medications. The patient was much improved medically and emotionally.
The patient returned four weeks later walking with a cane, having worked “10 to 14 hours per day and exhausted from my move with little sleep during the past month”. They reported “insatiable itching all over my body wherever my clothes touch the skin” which […] unsuccessfully tried to treat with cetirizine. […] said […] felt “dizzy, weak, Charlie horses in arches of feet and toes, unable to stand for more than 10 minutes before starting to have gait problems, problems sleeping, having trouble mentally and urine leaking”. […] working diagnoses are Axis I Bipolar disorder, not otherwise specified Axis III multiple sclerosis. […]

Data set [3] relates to patient with rapid mood swings and severe intense itching. As to the kind of experiment: Case report: patient with rapid mood swings and severe intense itching. Particulars: Example 19. On the procedure: A patient presented with rapid mood swings and a complaint of severe intense itching from clothing tags and some clothing, which began over twenty years ago. They were begun on gabapenten which was increased to 300 mg qid. […] Their itching was unchanged. They were begun on Topamax 12.5 mg at bedtime which was increased weekly by 12.5 mg until 50 mg.

Turning to `COc1ccc2cc([C@H](C)C(=O)O)ccc2c1` [Naproxen], in data set [1], the “effect on painful swelling and stiffness” value is given as “ineffective”.
Regarding `O=C(O)COCCN1CCN(C(c2ccccc2)c2ccc(Cl)cc2)CC1` (centres unmarked) [cetirizine], in data set [2], the treatment of itching entry is listed as “unsuccessfully”.
In the case of `NCC1(CC(=O)O)CCCCC1` [gabapenten], in data set [3] (300 mg qid), the mood result is “a little calmer”. In addition, the weight gained result in data set [3] (300 mg qid, in two weeks) is listed as “five”. The itching entry in data set [3] (increased to 300 mg qid) is recorded as “unchanged”.
